Test results published in patent US20220119355A1, “SATURATED-RING-FUSED DIHYDROPYRIMIDINONE OR DIHYDROTRIAZINONE COMPOUNDS AND PHARMACEUTICAL USE THEREOF” (Japan Tobacco Inc., priority 2018, published 2022).

Legend:
mouse RORγ = target: T1, mouse RORγ (Mus musculus, UniProt P51450); assay: In-vitro reporter gene assay for inhibitory activity against RORγ transcription, Test Method B (pFA/mRORγ LBD / pG5-Luc in CHO cells); assay type: cell-based; settings: luciferase reporter, CHO cells, 2 days
T1 construct: from Ile251 to Lys516 for mouse RORγ; expressed in transfected cells; host or cells: CHO cells (transient co-transfection with pG5-Luc)
T1 sequence (P51450 251-516): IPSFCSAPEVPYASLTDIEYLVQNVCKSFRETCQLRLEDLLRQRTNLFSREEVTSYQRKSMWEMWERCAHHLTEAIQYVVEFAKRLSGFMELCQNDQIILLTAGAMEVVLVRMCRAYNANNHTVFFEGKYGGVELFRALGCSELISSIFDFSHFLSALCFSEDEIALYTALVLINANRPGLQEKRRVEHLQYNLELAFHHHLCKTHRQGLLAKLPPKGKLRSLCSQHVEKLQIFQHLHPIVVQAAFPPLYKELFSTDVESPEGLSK
Experimental: (§1) In-Vitro Assay for Inhibitory Activity Against RORγ Transcription
(§2) Inhibitory activity against RORγ transcription was assessed for test compounds by either of the following Test Method A or B of reporter gene assay.
(§3) cDNAs encoding human and mouse RORγ ligand binding domains (LBD) were obtained based on the sequences of human RORγ (Genbank registered number NM_005060.3) and mouse RORγ (Genbank registered number NM_011281.2) (LBD sequences: from Ser253 to Lys518 for human RORγ; from Ile251 to Lys516 for mouse RORγ).
(§4) LBD cDNAs of human and mouse RORγ were inserted into pFA-CMV vector (Agilent Technologies, Inc.), which expresses GAL4-DNA binding domain fusion protein. The resulting plasmids are hereinafter referred to as pFA/hRORγ plasmid and pFA/mRORγ plasmid, respectively.
(§5) pFA/hRORγ plasmid or pFA/mRORγ plasmid was transiently co-transfected into Chinese hamster ovary cells (CHO cells) with pG5-Luc (Promega), reporter plasmid expressing firefly luciferase in a GAL4-dependent manner.
(§6) TransIT (Registered trademark) CHO Transfection Kit (Mirus) was used to co-transfect CHO cells with the plasmids. One day prior to the assay, CHO cells were suspended in HAM F-12 Nutrient medium containing 10% (v/v) fetal bovine serum and seeded at 5.5×10^6 cells per 225 cm^2 cell culture flask each. 72 μL of TransIT (Registered trademark) CHO reagent was added into a 2 mL tube containing 1.55 mL of Opti-MEM, and then mixed and incubated at room temperature for 10 minutes. 50.4 μL of a plasmid solution containing 300 ng of pFA/hRORγ plasmid, 12000 ng of pG5-Luc plasmid, and 11700 ng of pcDNA3.1 plasmid were added into the tube and mixed gently. In the case of mouse assay, a plasmid solution containing 300 ng of pFA/mRORγ plasmid, 12000 ng of pG5-Luc plasmid, and 11700 ng of pcDNA3.1 plasmid was added, instead. The mixture was incubated at room temperature for 10 minutes. 12 μL each of CHO Mojo Reagent were then added into each tube and mixed gently. The mixture was incubated at room temperature for 10 minutes. The resulting transfection reagent was applied to the cell culture. After incubation at 37° C., 5% CO2 for 4 hours, the plasmid-transfected CHO cells were harvested by trypsin treatment. The collected cells were resuspended in culture medium and plated into a 384-well-white plate at 8,000 cells/35 μL/well. The plate was let stand at room temperature for 1 hour and then further incubated at 37° C., 5% CO2 for 3 hours. A test compound was dissolved in dimethyl sulfoxide (DMSO) to obtain a concentration of 10 mM. Each solution was serially diluted with DMSO and further diluted with culture medium just before use. The test compound solutions were added to the cells in the plate at 6 different concentrations. The final concentration of DMSO was 0.2% (v/v). After the addition of test compound, the cells were incubated at 37° C., 5% CO2 for 2 days.
(§7) RORγ transcriptional activity was detected as the intracellular luciferase activity using SteadyLite HTS Reporter Gene Assay System (Perkin Elmer). SteadyLite Reagent was diluted 2.5-fold with Extension buffer (10 mM Tricine, 0.2% (w/v) bovine serum albumin, 0.02% (v/v) Tween-20) to obtain a luciferase substrate solution. Two days after the addition of test compound, 40 μL each of the luciferase substrate solution was added into the 384-well-plate. After the incubation at room temperature for 10 minutes, luminescence of each well was measured with a microplate reader. The luciferase activity derived from the luminescence count in a vehicle-control well treated with 0.2% DMSO alone was defined as 100%, and the luciferase activity after treatment of the test compound was calculated as a percentage, %-of-control, based on the value of the vehicle-control. An EC50 value of the test compound was calculated by curve fitting. The luminescence counts at the concentration of test compound where cytotoxicity was observed were excluded from data analysis. […]

human RORγ = target: T2, human RORγ (Homo sapiens, UniProt P51449); assay: In-vitro reporter gene assay for inhibitory activity against RORγ transcription, Test Method B (pFA/hRORγ LBD / pG5-Luc in CHO cells); assay type: cell-based; settings: luciferase reporter, CHO cells, 2 days
T2 construct: from Ser253 to Lys518 for human RORγ; expressed in transfected cells; host or cells: CHO cells (transient co-transfection with pG5-Luc)
T2 sequence (P51449 253-518): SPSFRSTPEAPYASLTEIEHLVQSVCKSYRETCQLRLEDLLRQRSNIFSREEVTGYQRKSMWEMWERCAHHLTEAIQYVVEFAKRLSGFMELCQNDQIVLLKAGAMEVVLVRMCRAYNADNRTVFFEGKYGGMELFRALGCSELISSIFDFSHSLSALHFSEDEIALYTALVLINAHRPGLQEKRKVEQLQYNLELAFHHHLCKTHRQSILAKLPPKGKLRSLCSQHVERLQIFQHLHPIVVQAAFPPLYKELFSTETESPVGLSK
Experimental: as §1, §2, §3, §4, §5, §6, §7

[1] = Non Patent Literature 33; cited from earlier work

Row | Compound | EC50 (mouse RORγ) | EC50 (human RORγ) | bone loss in experimental periodontitis model [1]
1 | C[C@H]1CCC2(c3ccc(C4C(C(C)(C)C)C4(F)F)c(Cl)c3)NC(=O)N(C34CCC(C(=O)O)(C3)C4)C=C2[C@@H]1C (single isomer, unassigned) [Example 115] | 0.049 µM | 0.031 µM | 
2 | C[C@H]1CCC2(c3ccc(C4C(C(C)(C)C)C4(F)F)c(Cl)c3)NC(=O)N(C34CCC(C(=O)O)(C3)C4)C=C2[C@@H]1C (single isomer, unassigned) [Example 116] | 0.101 µM | 0.044 µM | 
3 | CC1C2=CN(C34CC(C(=O)O)(C3)C4)C(=O)N[C@@]2(c2ccc(CCC(C)(C)C)c(Cl)c2)CCC1(C)C (single isomer, unassigned) [Example 117] | 5.3 µM | 4.68 µM | 
4 | CC1C2=CN(C34CC(C(=O)O)(C3)C4)C(=O)N[C@]2(c2ccc(CCC(C)(C)C)c(Cl)c2)CCC1(C)C (single isomer, unassigned) [Example 118] | 0.082 µM | 0.033 µM | 
5 | CC1C2=CN(C34CCC(C(=O)O)(C3)C4)C(=O)N[C@@]2(c2ccc(CCC(C)(C)C)c(Cl)c2)COC1(C)C (single isomer, unassigned) [Example 119] | > 10 µM | > 10 µM | 
6 | CC1C2=CN(C34CCC(C(=O)O)(C3)C4)C(=O)N[C@]2(c2ccc(CCC(C)(C)C)c(Cl)c2)COC1(C)C (single isomer, unassigned) [Example 120] | 0.02 µM | 0.013 µM | 
7 | CC1C2=CN(C34CCC(C(=O)O)(C3)C4)C(=O)N[C@]2(c2ccc(CCC(C)(C)C)c(Cl)c2)COC1(C)C (single isomer, unassigned) [Example 121] | 0.04 µM | 0.035 µM | 
8 | CCS(=O)(=O)c1ccc(CC(=O)Nc2cc(Cl)c(-c3ccccc3OC(F)(F)F)c(Cl)c2)cc1 [GSK805] |  |  | diminished bone loss
